The values below are quoted from earlier work in patent US7160886B2, “Acylated piperazine derivatives as melanocortin-4 receptor agonists” (Merck & Co., Inc., priority 2003, dated 2007).

The series concerns men with erectile dysfunction. Conditions: for duration of effect / onset of action: after an oral dose; for patients in whom effective / adequate response: oral.

For the compound `Cc1ccc(N(CC2=NCCN2)c2cccc(O)c2)cc1` [phentolamine], the duration of effect was 2 h, the onset of action was 5 to 30 min and the “patients in whom effective / adequate response” value is on record as 35–40%.
Take `CCCc1nn(C)c2c(=O)[nH]c(-c3cc(S(=O)(=O)N4CCN(C)CC4)ccc3OCC)nc12` [sildenafil]: the duration of effect entry is reported as “about 4 hours”, the onset of action is 30 to 60 min and the “patients in whom effective / adequate response” value was “about 70%”.
